Laboratory results: paper PMC8815882, “Screening the pandemic response box identified benzimidazole carbamates, Olorofim and ravuconazole as promising drug candidates for the treatment of eumycetoma” (PLoS Neglected Tropical Diseases, 2022)
Where two headings read alike, the source gives them in different places.

Test system: M. mycetomatis genome strain MM55
Assay: CLSI M38-A2 based in vitro susceptibility screening (XTT or resazurin), growth at fixed concentration
Assay type: cell-based, Madurella mycetomatis
Details: Madurella mycetomatis; for Percent fungal survival at 100 µM: read-out: Percentage survival at 100um, 100 uM A (second replicate column)
[1] = mean of replicates, MM55, read-out: Percentage survival at 25um, 25 uM mean
[2] = replicate A, MM55, read-out: Percentage survival at 25um, 25 um A
[3] = replicate B, MM55, read-out: Percentage survival at 25um, 25 uM B
[4] = replicate C, MM55, read-out: Percentage survival at 25um, 25 uM C
[5] = mean of replicates, MM55, read-out: Percentage survival at 100um, 100 uM mean
[6] = replicate 1, MM55, read-out: Percentage survival at 100um, 100 uM A
[7] = replicate 2, MM55, read-out: Percentage survival at 100um, 100 uM A
[8] = replicate 3, MM55, read-out: Percentage survival at 100um, 100 uM A
[9] = mean of three, M. mycetomatis MM55, read-out: Percentage survival at 25um, 25 uM mean
[10] = replicate A, M. mycetomatis MM55, read-out: Percentage survival at 25um, 25 um A
[11] = replicate B, M. mycetomatis MM55, read-out: Percentage survival at 25um, 25 uM B
[12] = replicate C, M. mycetomatis MM55, read-out: Percentage survival at 25um, 25 uM C
[13] = mean of three, M. mycetomatis MM55, read-out: Percentage survival at 100um, 100 uM mean
[14] = replicate 1, M. mycetomatis MM55, read-out: Percentage survival at 100um, 100 uM A (first replicate column)
[15] = replicate 2, M. mycetomatis MM55
[16] = replicate 3, M. mycetomatis MM55, read-out: Percentage survival at 100um, 100 uM A (third replicate column)
[17] = mean of three replicates, read-out: Percentage survival at 25um, 25 uM mean
[18] = replicate A, read-out: Percentage survival at 25um, 25 um A
[19] = replicate B, read-out: Percentage survival at 25um, 25 uM B
[20] = replicate C, read-out: Percentage survival at 25um, 25 uM C
[21] = mean of three replicates, read-out: Percentage survival at 100um, 100 uM mean
[22] = replicate 1, read-out: Percentage survival at 100um, 100 uM A (first replicate column)
[23] = replicate 3, read-out: Percentage survival at 100um, 100 uM A (third replicate column)
[24] = mean, read-out: Percentage survival at 25um, 25 uM mean
[25] = mean, read-out: Percentage survival at 100um, 100 uM mean
[26] = replicate (first column), read-out: Percentage survival at 100um, 100 uM A
[27] = replicate (second column), read-out: Percentage survival at 100um, 100 uM A
[28] = replicate (third column), read-out: Percentage survival at 100um, 100 uM A
[29] = first replicate column, read-out: Percentage survival at 100um, 100 uM A
[30] = second replicate column, read-out: Percentage survival at 100um, 100 uM A
[31] = third replicate column, read-out: Percentage survival at 100um, 100 uM A
[32] = mean of replicates, read-out: Percentage survival at 25um, 25 uM mean
[33] = mean of replicates, read-out: Percentage survival at 100um, 100 uM mean
[34] = replicate 1, read-out: Percentage survival at 100um, 100 uM A
[35] = replicate 2, read-out: Percentage survival at 100um, 100 uM A
[36] = replicate 3, read-out: Percentage survival at 100um, 100 uM A

C[C@H]1COc2c(N3CCN(C)CC3)c(F)cc3c(=O)c(C(=O)O)cn1c23 [MMV687798]
activity at 25 µM [1]: 96.2% | activity at 25 µM [2]: 101% | activity at 25 µM [3]: 105% | activity at 25 µM [4]: 82.9% | activity at 100 µM [5]: 91.4% | activity at 100 µM [6]: 97.4% | activity at 100 µM [7]: 91.1% | activity at 100 µM [8]: 85.7%

C[C@H](c1cccc2ccccc12)N(C)Cc1ccccc1 [MMV1782221]
activity at 25 µM [9]: 60.5% | activity at 25 µM [10]: 78.4% | activity at 25 µM [11]: 99.2% | activity at 25 µM [12]: 3.87% | activity at 100 µM [13]: 78.8% | activity at 100 µM [14]: 56% | Percent fungal survival at 100 µM [15]: 63.1% | activity at 100 µM [16]: 117%

CC(C)Cn1c(=O)n(C)c(=O)c2c(-c3cncn3C)n(Cc3cccc4ccccc34)nc21 [MMV1581559]
activity at 25 µM [17]: 58.5% | activity at 25 µM [18]: 82.8% | activity at 25 µM [19]: 69.9% | activity at 25 µM [20]: 22.7% | activity at 100 µM [21]: 3.57% | activity at 100 µM [22]: 1.05% | Percent fungal survival at 100 µM (replicate 2): 5.73% | activity at 100 µM [23]: 3.94%

O=C(O)c1ccc(-n2nc(-c3ccccc3O)nc2-c2ccccc2O)cc1 [MMV640014]
activity at 25 µM [24]: 87% | activity at 25 µM [18]: 94.6% | activity at 25 µM [19]: 88.3% | activity at 25 µM [20]: 78% | activity at 100 µM [25]: 78.4% | activity at 100 µM [26]: 85.5% | activity at 100 µM [27]: 73.2% | activity at 100 µM [28]: 76.5%

Cc1cc(C)n2nc(C(=O)NS(=O)(=O)c3c(C)cccc3OC(F)(F)F)nc2n1 [MMV1782402]
activity at 25 µM [17]: 96.1% | activity at 25 µM [18]: 98.2% | activity at 25 µM [19]: 98.8% | activity at 25 µM [20]: 91.3% | activity at 100 µM [21]: 91.2% | activity at 100 µM [22]: 99% | Percent fungal survival at 100 µM (replicate 2): 92.6% | activity at 100 µM [23]: 82%

CC(C)(C)c1ccc(OCCn2nc(C(=O)O)c3ccccc3c2=O)cc1 [MMV1634387]
activity at 25 µM [9]: 81.2% | activity at 25 µM [10]: 89.9% | activity at 25 µM [11]: 84.5% | activity at 25 µM [12]: 69.2% | activity at 100 µM [13]: 66.6% | activity at 100 µM [14]: 80.6% | Percent fungal survival at 100 µM [15]: 37.8% | activity at 100 µM [16]: 81.3%

O=c1[nH]c(=O)n(Cc2cccc(Oc3ccccc3)c2)cc1Nc1ccccc1 [MMV1782107]
activity at 25 µM [17]: 91.7% | activity at 25 µM [18]: 75.5% | activity at 25 µM [19]: 83.9% | activity at 25 µM [20]: 116% | activity at 100 µM [29]: 90.6% | activity at 100 µM [21]: 71.8% | activity at 100 µM [30]: 77.9% | activity at 100 µM [31]: 47.1%

CN(C)CCNC(=O)c1cccc2cccnc12 [MMV811071]
activity at 25 µM [32]: 84.2% | activity at 25 µM [18]: 90.3% | activity at 25 µM [19]: 90.7% | activity at 25 µM [20]: 71.6% | activity at 100 µM [33]: 85.2% | activity at 100 µM [34]: 79.4% | activity at 100 µM [35]: 92.5% | activity at 100 µM [36]: 83.6%

CSC[C@H]1CN(Cc2c[nH]c3c(N)ncnc23)C[C@@H]1O [MMV1578565]
activity at 25 µM [9]: 80.1% | activity at 25 µM [10]: 86.7% | activity at 25 µM [11]: 77.5% | activity at 25 µM [12]: 76% | activity at 100 µM [13]: 87.9% | activity at 100 µM [14]: 88.9% | Percent fungal survival at 100 µM [15]: 83% | activity at 100 µM [16]: 91.9%

CC(C)(C)c1ccc(C(=O)NC(=O)N2CCCc3ccccc32)cc1 [MMV1782212]
activity at 25 µM [24]: 78.4% | activity at 25 µM [18]: 90.3% | activity at 25 µM [19]: 74.4% | activity at 25 µM [20]: 70.6% | activity at 100 µM [25]: 81.3% | activity at 100 µM [26]: 68.7% | activity at 100 µM [27]: 79.3% | activity at 100 µM [28]: 95.8%

O=C1NC(=S)N/C1=C\c1cc(Br)cc(Br)c1O [MMV1578569]
activity at 25 µM [32]: 85.5% | activity at 25 µM [18]: 79.8% | activity at 25 µM [19]: 98.7% | activity at 25 µM [20]: 77.8% | activity at 100 µM [33]: 102% | activity at 100 µM [34]: 103% | activity at 100 µM [35]: 104% | activity at 100 µM [36]: 97.5%

Nc1cccc(-c2nc(N)nc(NC3Cc4ccccc4C3)n2)c1 [MMV1581555]
activity at 25 µM [32]: 86% | activity at 25 µM [18]: 98.9% | activity at 25 µM [19]: 85.3% | activity at 25 µM [20]: 73.8% | activity at 100 µM [33]: 85.5% | activity at 100 µM [34]: 81.1% | activity at 100 µM [35]: 89% | activity at 100 µM [36]: 86.6%

O=S(=O)(NCB(O)O)c1ccc(-c2nnn[nH]2)cc1C(F)(F)F [MMV1782411]
activity at 25 µM [17]: 83.9% | activity at 25 µM [18]: 61.4% | activity at 25 µM [19]: 112% | activity at 25 µM [20]: 78.7% | activity at 100 µM [21]: 88.5% | activity at 100 µM [22]: 91.5% | Percent fungal survival at 100 µM (replicate 2): 83.7% | activity at 100 µM [23]: 90.2%

COc1c(NC(=O)[C@H]2CC[C@@H](COc3ccc([N+](=O)[O-])cc3)CC2)c(F)cc2c(=O)c(C(=O)O)cn(C3CC3)c12 [MMV1633965]
activity at 25 µM [32]: 83.5% | activity at 25 µM [18]: 86.3% | activity at 25 µM [19]: 88.2% | activity at 25 µM [20]: 76% | activity at 100 µM [33]: 82.8% | activity at 100 µM [34]: 86.1% | activity at 100 µM [35]: 78.7% | activity at 100 µM [36]: 83.4%

Nc1nc(O)c2ncn(COC(CO)CO)c2n1 [MMV001761]
activity at 25 µM [17]: 69.6% | activity at 25 µM [18]: 86.2% | activity at 25 µM [19]: 64.3% | activity at 25 µM [20]: 58.4% | activity at 100 µM [29]: 93.4% | activity at 100 µM [21]: 87% | activity at 100 µM [30]: 85.2% | activity at 100 µM [31]: 82.5%

CCc1nc2ccccn2c1C(=O)NCc1ccccc1 [MMV1663457]
activity at 25 µM [9]: 64.2% | activity at 25 µM [10]: 58% | activity at 25 µM [11]: 69.7% | activity at 25 µM [12]: 64.8% | activity at 100 µM [13]: 64.3% | activity at 100 µM [14]: 52.2% | Percent fungal survival at 100 µM [15]: 54% | activity at 100 µM [16]: 86.6%

N[C@@H]1CN(c2c(F)cc3c(=O)c(C(=O)O)cn([C@@H]4C[C@@H]4F)c3c2Cl)CC12CC2 [MMV1579850]
activity at 25 µM [17]: 85.6% | activity at 25 µM [18]: 82.4% | activity at 25 µM [19]: 85.7% | activity at 25 µM [20]: 88.6% | activity at 100 µM [21]: 83.7% | activity at 100 µM [22]: 86.1% | Percent fungal survival at 100 µM (replicate 2): 82.9% | activity at 100 µM [23]: 82%

Cn1cc(NC(=O)c2cc(NC(=O)c3ccc(/C=C/c4cnc5ccccc5c4)cc3)cn2C)cc1C(=O)NCCN1CCOCC1 [MMV1634391]
activity at 25 µM [32]: 73.9% | activity at 25 µM [18]: 63.4% | activity at 25 µM [19]: 79.1% | activity at 25 µM [20]: 79.2% | activity at 100 µM [33]: 60.7% | activity at 100 µM [34]: 61% | activity at 100 µM [35]: 53.1% | activity at 100 µM [36]: 68%

C[C@@H](NC(=O)c1cccc(-c2c[nH]c(-c3cc4ccccc4cn3)n2)c1)c1ccc(F)cc1 [MMV1782211]
activity at 25 µM [1]: 77% | activity at 25 µM [2]: 80.9% | activity at 25 µM [3]: 86% | activity at 25 µM [4]: 64.2% | activity at 100 µM [5]: 70% | activity at 100 µM [6]: 78.5% | activity at 100 µM [7]: 73.3% | activity at 100 µM [8]: 58.3%

CC[C@H]1OC(=O)[C@H](C)[C@@H](O[C@H]2C[C@@](C)(OC)[C@@H](O)[C@H](C)O2)[C@H](C)[C@@H](O[C@@H]2O[C@H](C)C[C@H](N(C)C)[C@H]2O)[C@](C)(O)C[C@@H](C)C(=O)[C@H](C)[C@@H](O)[C@]1(C)O [MMV003137]
activity at 25 µM [9]: 82.5% | activity at 25 µM [10]: 94.8% | activity at 25 µM [11]: 79.1% | activity at 25 µM [12]: 73.6% | activity at 100 µM [13]: 79.9% | activity at 100 µM [14]: 78.2% | Percent fungal survival at 100 µM [15]: 73.7% | activity at 100 µM [16]: 87.7%
